# Source: US20230398098A1, “TOPICAL DETOMIDINE FORMULATIONS” (Clexio Biosciences Ltd., priority 2020, published 2023)
# Counter-ions that a name gives are not always drawn.
# How the values were obtained:
# Type in all cases: physicochemical
# [1] = Hydration study of solid forms by DVS analysis
# Method: Melting points (m.p.) of the intermediate detomidine free base and hydrochloride of Sample 5 measured in open capillary corresponded with the published literature and the DSC data and are presented in Table 4. In order to evaluate effect of humidity on different forms of detomidine, a hydration study was performed. Samples of detomidine free base and hydrochloride salt were subjected to DVS analysis. These observations are in accordance with the DVS results shown in FIGS. 1 and 2, for detomidine free base and detomidine HCl, respectively.
# During the dehydration cycle, the monohydrate began to lose water at RH˜10% and converted into the anhydrate at RH=0%.
# [2] = Solubility of solid forms in water (observation)
# [3] = Oxidation with potassium permanganate in aqueous solution, HPLC of RRT = 0.38; conditions: 3 hours after solution preparation
# Method: A further sample of material from Table 6, Batch #v was reacted with potassium permanganate in aqueous solution. RRT=0.38 was found in the reaction product at 0.14% at 3 hours after solution preparation.
# [4] = Aldehyde impurity assessment: aqueous stock solutions exposed to air, HPLC of RRT = 0.38; conditions: 7.4 wt % detomidine HCl in water; for RRT = 0.38 content at 2 years: exposed to air at room temperature; for Initial RRT = 0.38 content: time zero
# Method: Therefore, for further identification of the elusive impurity, new HPLC protocols for assaying detomidine HCl were developed. One protocol (“HPLC Protocol A”) comprised using a SunFire C8 column, 100Å, 3.5 μm, 4.6×150 mm column with an initial mobile phase of 70% Ammonium Phosphate buffer solution, pH 7.9 and 30% Acetonitrile, at a flow rate of 1.0 mL/min and UV detection at 220 nm. To remove late eluting peaks, the flush gradient shown in Table 5 was applied after each run. This HPLC protocol allowed for a resolution factor of 3.9 between detomidine and the unidentified impurity. The quantitation level (QL) for impurities and degradation products is 0.025%. The detection level (DL) for impurities and degradation products is 0.01%.
# Stock solutions of 7.4 wt % detomidine HCl in water were prepared using material from Table 6, Batch #iv and v and the samples were then kept exposed to air at room temperature for 2 years.
smiles,measurement,setting,value
Cc1cccc(Cc2c[nH]cn2)c1C [detomidine HCl monohydrate],RH at which the monohydrate began to lose water,"[1]; dehydration cycle, DVS",~10%
same,RH at which the monohydrate converted into the anhydrate,"[1]; dehydration cycle, DVS",0%
Cc1cccc(Cc2c[nH]cn2)c1C [detomidine hydrochloride],solubility in water,[2],soluble
Cc1cccc(Cc2c[nH]cn2)c1C [anhydrous detomidine HCl],RH at which the anhydrate absorbs water / transforms completely into the monohydrate,[1]; DVS,30-50%
same,RH at which the anhydrate did not absorb water,[1]; DVS,< 30%
Cc1cccc(Cc2cnc[nH]2)c1C.Cl.O [Batch v],RRT=0.38 in the reaction product,[3],0.14%
same,RRT = 0.38 content at 2 years,[4]; listed as v,0.02%
same,Initial RRT = 0.38 content,[4]; listed as v,not detectable
"Cc1cccc(Cc2c[nH]cn2)c1C [detomidine free base, 4-[(2,3-dimethylphenyl)methyl]-1H-Imidazole]",solubility in water,[2],insoluble in water
same,hygroscopicity,"[1]; DVS, 24.4° C. (FIG. 1)",non-hygroscopic
same,water absorbed,[1]; at relative humidity (RH)>50%,more than 1%
Cc1cccc(Cc2cnc[nH]2)c1C.Cl.O [Batch iv],RRT = 0.38 content at 2 years,[4]; listed as iv,1%
same,Initial RRT = 0.38 content,[4]; listed as iv,0.2%
Cc1cccc(Cc2c[nH]cn2)c1C.Cl [Sample 2],"water level absorbed, cKF",[1]; hydration of the anhydrous form,7.7%
